ChEMBL document CHEMBL1133958, “Derivatives of (2R,3R,4S)-2-aminomethylpyrrolidine-3,4-diol are selective alpha-mannosidase inhibitors” (Bioorg Med Chem Lett, 2001)
pIC50, pKi: −log10 of the molar value. Activity calls are given as the source filed them. The calls are words filed in the database; no cut-off is given here.

Legend:
[1] = molecular target: T1, Glucoamylase 1 (Rhizopus oryzae) (UniProt P07683); experiment: Percentage inhibition of Alpha-glucosidase from Rhizopus mold (amyloglucosidase) at 1 mM concentration; No inhibition; conditions: Rhizopus arrhizus
T1 sequence (whole entry): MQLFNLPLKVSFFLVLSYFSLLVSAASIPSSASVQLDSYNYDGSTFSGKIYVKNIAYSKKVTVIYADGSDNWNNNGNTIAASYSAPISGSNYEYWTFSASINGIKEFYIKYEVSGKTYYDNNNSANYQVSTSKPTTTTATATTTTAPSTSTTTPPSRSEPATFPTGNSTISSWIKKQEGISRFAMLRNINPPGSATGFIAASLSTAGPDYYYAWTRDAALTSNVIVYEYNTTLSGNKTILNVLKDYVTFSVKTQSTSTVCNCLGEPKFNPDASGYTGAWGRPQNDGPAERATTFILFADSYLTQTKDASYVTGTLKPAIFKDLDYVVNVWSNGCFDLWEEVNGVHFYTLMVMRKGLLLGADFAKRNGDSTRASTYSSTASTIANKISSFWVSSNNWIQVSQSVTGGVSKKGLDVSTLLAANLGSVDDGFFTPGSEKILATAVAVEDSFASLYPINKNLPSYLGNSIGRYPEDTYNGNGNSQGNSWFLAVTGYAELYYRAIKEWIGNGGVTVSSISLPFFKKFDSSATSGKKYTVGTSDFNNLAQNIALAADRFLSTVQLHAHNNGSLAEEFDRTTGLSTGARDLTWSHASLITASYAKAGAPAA

[2] = molecular target: T2, Beta-galactosidase (Bos taurus) (UniProt Q58D55); experiment: Percentage inhibition of Beta-galactosidase from Bovine liver at 1 mM concentration; No inhibition
T2 sequence (whole entry): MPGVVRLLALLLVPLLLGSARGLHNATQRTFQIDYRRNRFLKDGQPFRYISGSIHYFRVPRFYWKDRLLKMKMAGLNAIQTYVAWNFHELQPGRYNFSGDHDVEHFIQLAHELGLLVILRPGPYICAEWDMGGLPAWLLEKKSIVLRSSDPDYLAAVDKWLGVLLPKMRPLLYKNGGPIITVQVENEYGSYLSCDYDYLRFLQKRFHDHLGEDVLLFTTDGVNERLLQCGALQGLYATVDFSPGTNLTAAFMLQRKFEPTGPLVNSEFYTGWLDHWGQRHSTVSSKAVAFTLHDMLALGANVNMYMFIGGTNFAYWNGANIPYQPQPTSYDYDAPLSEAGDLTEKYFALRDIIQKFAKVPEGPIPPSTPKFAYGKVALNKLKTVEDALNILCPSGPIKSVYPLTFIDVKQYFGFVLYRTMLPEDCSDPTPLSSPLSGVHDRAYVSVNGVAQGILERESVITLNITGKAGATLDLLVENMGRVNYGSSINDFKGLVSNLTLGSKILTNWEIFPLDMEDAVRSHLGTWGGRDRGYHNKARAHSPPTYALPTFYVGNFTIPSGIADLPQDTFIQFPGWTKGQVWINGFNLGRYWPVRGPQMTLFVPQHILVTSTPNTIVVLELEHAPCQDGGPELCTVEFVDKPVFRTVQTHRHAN

[3] = molecular target: T3, Alpha-glucosidase (Oryza sativa Japonica Group) (UniProt Q9LGC6); experiment: Percentage inhibition of Alpha-glucosidase from Rice (maltase) at 1 mM; […]
T3 sequence (whole entry): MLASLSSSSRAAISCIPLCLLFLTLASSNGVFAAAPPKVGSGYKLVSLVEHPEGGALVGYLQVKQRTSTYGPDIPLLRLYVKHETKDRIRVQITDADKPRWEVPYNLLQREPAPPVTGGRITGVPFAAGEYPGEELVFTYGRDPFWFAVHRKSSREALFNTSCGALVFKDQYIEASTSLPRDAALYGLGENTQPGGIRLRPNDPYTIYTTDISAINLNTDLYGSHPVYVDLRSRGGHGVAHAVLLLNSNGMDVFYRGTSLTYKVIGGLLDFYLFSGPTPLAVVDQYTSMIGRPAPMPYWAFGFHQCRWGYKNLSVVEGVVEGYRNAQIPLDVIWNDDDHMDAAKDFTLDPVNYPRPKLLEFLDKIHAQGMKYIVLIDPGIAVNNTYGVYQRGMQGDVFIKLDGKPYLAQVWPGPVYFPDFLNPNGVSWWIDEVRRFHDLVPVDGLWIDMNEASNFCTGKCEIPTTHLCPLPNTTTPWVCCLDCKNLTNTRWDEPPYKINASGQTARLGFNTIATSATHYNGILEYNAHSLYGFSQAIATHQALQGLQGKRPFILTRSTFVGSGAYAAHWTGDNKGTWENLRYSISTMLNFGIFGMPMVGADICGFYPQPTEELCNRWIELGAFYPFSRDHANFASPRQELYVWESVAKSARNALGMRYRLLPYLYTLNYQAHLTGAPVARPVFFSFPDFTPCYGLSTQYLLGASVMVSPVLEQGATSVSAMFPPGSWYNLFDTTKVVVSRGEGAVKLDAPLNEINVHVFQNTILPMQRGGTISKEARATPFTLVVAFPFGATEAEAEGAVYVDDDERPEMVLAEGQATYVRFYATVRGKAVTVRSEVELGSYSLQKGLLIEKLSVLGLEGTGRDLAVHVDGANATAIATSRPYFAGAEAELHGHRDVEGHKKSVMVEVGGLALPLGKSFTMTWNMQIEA

Saccharomyces cerevisiae [4] = experiment: Percentage inhibition of Alpha-glucosidase from Yeast (maltase) at 1 mM
[5] = Inhibitory activity towards Alpha-glucosidase from Baker yeast (isomaltase); set-up: species or system Saccharomyces cerevisiae
[6] = system: Alpha-mannosidase (Prunus dulcis); experiment: Percentage inhibition of Alpha-mannosidase from Almond at 1 mM
[7] = Inhibitory activity towards Alpha-glucosidase from Yeast (maltase); set-up: species or system Saccharomyces cerevisiae
Saccharomyces cerevisiae [8] = experiment: Percentage inhibition of Alpha-glucosidase from Baker yeast (isomaltase) at 1 mM
[9] = molecular target: Glucoamylase (Aspergillus niger) (UniProt P69328); experiment: Percentage inhibition of Alpha-glucosidase from Aspergillus niger (amyloglucosidase) at 1 mM; No inhibition
Glucoamylase (Aspergillus niger), sequence (P69328 whole entry): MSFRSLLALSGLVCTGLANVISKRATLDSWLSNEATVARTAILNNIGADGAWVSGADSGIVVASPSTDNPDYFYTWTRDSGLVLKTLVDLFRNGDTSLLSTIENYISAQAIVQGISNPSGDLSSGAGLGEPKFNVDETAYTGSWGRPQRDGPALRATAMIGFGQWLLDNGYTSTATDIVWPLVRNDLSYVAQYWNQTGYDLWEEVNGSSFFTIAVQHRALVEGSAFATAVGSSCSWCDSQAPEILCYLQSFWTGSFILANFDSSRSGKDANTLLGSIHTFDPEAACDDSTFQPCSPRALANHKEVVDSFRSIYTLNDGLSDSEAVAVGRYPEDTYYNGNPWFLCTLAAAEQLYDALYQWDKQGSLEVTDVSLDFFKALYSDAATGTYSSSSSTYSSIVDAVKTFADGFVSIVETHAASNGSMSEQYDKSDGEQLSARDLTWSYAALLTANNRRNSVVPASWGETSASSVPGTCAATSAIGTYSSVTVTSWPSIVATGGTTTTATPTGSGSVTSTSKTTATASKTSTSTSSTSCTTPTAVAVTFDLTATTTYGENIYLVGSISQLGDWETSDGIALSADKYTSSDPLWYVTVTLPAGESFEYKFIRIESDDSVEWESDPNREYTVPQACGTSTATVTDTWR

Beta-glucosidase A [10] = molecular target: T4, Beta-glucosidase A (Caldicellulosiruptor saccharolyticus, UniProt P10482); experiment: Inhibitory activity towards Beta-Glucosidase from Caldocellum saccharol
T4 sequence (P10482 whole entry): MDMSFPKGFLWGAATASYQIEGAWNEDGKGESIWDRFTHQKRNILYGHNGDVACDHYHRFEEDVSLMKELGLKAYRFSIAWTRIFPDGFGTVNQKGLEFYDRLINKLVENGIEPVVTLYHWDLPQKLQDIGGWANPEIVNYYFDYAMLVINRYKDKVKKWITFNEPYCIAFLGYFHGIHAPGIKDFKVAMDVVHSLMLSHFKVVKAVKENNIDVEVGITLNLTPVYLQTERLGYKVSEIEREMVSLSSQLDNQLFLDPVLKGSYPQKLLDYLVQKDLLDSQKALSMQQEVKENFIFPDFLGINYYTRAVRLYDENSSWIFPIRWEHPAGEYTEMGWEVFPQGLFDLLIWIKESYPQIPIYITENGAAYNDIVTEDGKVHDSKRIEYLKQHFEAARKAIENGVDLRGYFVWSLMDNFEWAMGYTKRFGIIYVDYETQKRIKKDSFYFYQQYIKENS

[11] = molecular target: T5, Beta-galactosidase (Aspergillus niger) (UniProt P29853); experiment: Percentage inhibition of Beta-galactosidase from Aspergillus niger at 1 mM concentration
T5 sequence (whole entry): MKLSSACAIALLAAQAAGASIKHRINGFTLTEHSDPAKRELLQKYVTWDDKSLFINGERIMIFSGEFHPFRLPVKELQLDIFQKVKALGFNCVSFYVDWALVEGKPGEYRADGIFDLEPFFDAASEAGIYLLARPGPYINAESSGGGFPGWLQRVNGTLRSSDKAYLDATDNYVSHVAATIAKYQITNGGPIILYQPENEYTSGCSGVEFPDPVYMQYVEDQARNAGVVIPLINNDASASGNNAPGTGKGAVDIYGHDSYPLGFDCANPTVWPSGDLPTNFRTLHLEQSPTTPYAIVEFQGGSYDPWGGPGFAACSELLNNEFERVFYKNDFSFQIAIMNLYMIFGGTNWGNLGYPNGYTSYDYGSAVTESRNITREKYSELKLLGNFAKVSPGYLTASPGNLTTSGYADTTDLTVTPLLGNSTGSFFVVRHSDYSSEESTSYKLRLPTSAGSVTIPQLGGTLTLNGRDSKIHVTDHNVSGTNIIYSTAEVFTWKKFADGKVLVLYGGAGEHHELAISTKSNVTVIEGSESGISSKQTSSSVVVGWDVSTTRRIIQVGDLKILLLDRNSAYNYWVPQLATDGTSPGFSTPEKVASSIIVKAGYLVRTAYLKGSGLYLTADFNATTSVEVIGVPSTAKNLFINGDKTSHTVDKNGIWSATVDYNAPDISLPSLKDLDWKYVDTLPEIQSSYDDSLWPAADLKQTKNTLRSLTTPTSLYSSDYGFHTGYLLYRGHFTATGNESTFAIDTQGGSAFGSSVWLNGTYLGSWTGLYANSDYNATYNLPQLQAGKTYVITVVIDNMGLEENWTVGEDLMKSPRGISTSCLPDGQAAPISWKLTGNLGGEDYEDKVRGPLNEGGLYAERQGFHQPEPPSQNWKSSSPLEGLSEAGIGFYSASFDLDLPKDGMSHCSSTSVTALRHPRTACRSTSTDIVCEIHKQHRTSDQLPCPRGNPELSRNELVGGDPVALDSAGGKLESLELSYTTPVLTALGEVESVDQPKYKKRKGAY

[12] = molecular target: Beta-glucosidase A (Caldicellulosiruptor saccharolyticus) (UniProt P10482); experiment: Percentage inhibition of Beta-Glucosidase from Caldocellum saccharol. at 1 mM
Beta-glucosidase A (Caldicellulosiruptor saccharolyticus), sequence (P10482 whole entry): as the sequence (P10482 whole entry) above

[13] = Percentage inhibition of Beta-galactosidase from Aspergillus oryzae at 1 mM
[14] = molecular target: Beta-galactosidase (Escherichia coli K-12) (UniProt P00722); experiment: Percentage inhibition of Beta-galactosidase from Escherichia coli at 1 mM concentration
Beta-galactosidase (Escherichia coli K-12), sequence (P00722 whole entry): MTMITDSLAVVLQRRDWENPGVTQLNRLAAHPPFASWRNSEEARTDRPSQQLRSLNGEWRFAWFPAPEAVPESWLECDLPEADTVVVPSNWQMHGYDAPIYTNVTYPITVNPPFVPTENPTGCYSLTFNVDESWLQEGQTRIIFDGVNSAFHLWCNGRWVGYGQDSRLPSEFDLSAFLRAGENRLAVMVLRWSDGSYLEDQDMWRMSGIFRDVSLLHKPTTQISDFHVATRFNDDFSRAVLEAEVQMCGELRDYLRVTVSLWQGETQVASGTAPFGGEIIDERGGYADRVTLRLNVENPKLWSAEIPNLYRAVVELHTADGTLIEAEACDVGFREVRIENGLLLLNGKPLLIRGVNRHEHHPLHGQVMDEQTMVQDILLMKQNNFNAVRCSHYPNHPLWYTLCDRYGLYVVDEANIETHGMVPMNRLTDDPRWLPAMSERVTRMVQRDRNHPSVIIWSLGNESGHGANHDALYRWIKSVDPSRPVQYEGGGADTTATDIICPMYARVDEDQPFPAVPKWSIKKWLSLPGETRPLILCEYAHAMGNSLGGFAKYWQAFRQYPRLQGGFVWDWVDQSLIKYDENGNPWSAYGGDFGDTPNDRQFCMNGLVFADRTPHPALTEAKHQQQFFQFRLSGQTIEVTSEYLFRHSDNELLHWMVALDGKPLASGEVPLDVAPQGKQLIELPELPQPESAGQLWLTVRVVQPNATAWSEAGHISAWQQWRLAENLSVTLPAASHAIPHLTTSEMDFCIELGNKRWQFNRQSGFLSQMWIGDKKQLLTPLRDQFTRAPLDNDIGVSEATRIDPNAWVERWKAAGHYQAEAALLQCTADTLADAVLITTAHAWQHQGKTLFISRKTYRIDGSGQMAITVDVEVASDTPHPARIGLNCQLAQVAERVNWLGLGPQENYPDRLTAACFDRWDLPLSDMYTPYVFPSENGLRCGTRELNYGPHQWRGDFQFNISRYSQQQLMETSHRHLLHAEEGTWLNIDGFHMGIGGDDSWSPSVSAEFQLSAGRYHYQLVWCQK

Beta-glucosidase A [15] = molecular target: T4, Beta-glucosidase A; experiment: Inhibitory activity towards Beta-Glucosidase from Caldocellum saccharol.
[16] = molecular target: T5, Beta-galactosidase (Aspergillus niger); experiment: Percentage inhibition of Beta-galactosidase from Aspergillus niger at 1 mM concentration; […]
[17] = molecular target: Beta-galactosidase (Escherichia coli K-12) (UniProt P00722); experiment: Percentage inhibition of Beta-galactosidase from Escherichia coli at 1 mM concentration; No inhibition
Saccharomyces cerevisiae [18] = experiment: Percentage inhibition of Alpha-glucosidase from Yeast (maltase) at 1 mM; […]
[19] = Percentage inhibition of Beta-galactosidase from Aspergillus oryzae at 1 mM; No inhibition
[20] = molecular target: Beta-glucosidase A (Caldicellulosiruptor saccharolyticus) (UniProt P10482); experiment: Percentage inhibition of Beta-Glucosidase from Caldocellum saccharol. at 1 mM; No inhibition
Saccharomyces cerevisiae [21] = experiment: Percentage inhibition of Alpha-glucosidase from Baker yeast (isomaltase) at 1 mM; No inhibition
[22] = Percentage inhibition of Beta-galactosidase from Jack bean at 1 mM concentration; No inhibition; conditions: Canavalia ensiformis
[23] = molecular target: T2, Beta-galactosidase (Bos taurus); experiment: Percentage inhibition of Beta-galactosidase from Bovine liver at 1 mM concentration

| SMILES | inhibition [1] | inhibition [2] | inhibition [3] | inhibition (Saccharomyces cerevisiae [4]) | pIC50 [5] | pKi [5] | inhibition [6] | inhibition (Saccharomyces cerevisiae [8]) | inhibition [9] | inhibition [11] | inhibition [12] | inhibition [14] | inhibition [16] | inhibition [17] | inhibition (Saccharomyces cerevisiae [18]) | inhibition [19] | inhibition (Saccharomyces cerevisiae [21]) | inhibition [22] | further results |
| --- | --- | --- | --- | --- | --- | --- | --- | --- | --- | --- | --- | --- | --- | --- | --- | --- | --- | --- | --- |
| OC1CNC(CNCc2ccco2)C1O (stereo not given) | inactive | inactive | inactive | 66% | 4.19 | 4.35 | 29% | 94% | inactive | 39% | 75% |  |  | inactive |  | inactive |  |  | pIC50 [7]: 3.55; pKi (Beta-glucosidase A [10]): 4.22; pIC50 (Beta-glucosidase A [15]): 3.60 |
| OC1CNC(CCNc2ccccc2)C1O (stereo not given) | inactive | inactive | inactive |  |  |  |  |  | inactive |  |  |  | inactive | inactive | inactive | inactive | inactive | inactive | inhibition [20]: inactive |
| OC1CNC(CNC2CCCC2)C1O (stereo not given) | inactive | inactive | inactive | 30% | 3.77 | 4.15 | 53% | 92% | inactive | 26% | 29% |  |  | inactive |  | inactive |  |  |  |
| OCC(O)[C@H]1NC[C@H](O)[C@@H]1O (stereo not given in full) | inactive |  | inactive |  |  |  |  |  | inactive |  | 40% |  | inactive | inactive | inactive | inactive | inactive | inactive | inhibition [23]: 32% |
| C[C@@H](NCC1NCC(O)C1O)c1ccccc1 (stereo not given in full) | inactive | inactive | inactive |  |  |  | 48% | 34% | inactive |  | 49% | 34% | inactive |  | inactive | inactive |  |  |  |

Continued, in another order:

| inhibition [1] | inhibition [2] | inhibition [3] | inhibition (Saccharomyces cerevisiae [4]) | pIC50 [5] | pKi [5] | inhibition [6] | inhibition (Saccharomyces cerevisiae [8]) | inhibition [9] | inhibition [11] | inhibition [12] | inhibition [14] | inhibition [16] | inhibition [17] | inhibition (Saccharomyces cerevisiae [18]) | inhibition [19] | inhibition (Saccharomyces cerevisiae [21]) | inhibition [22] | SMILES | further results |
| --- | --- | --- | --- | --- | --- | --- | --- | --- | --- | --- | --- | --- | --- | --- | --- | --- | --- | --- | --- |
| inactive | inactive | inactive | 55% | 3.92 | 4.40 | 59% | 90% | inactive | 41% | 76% | 49% |  |  |  |  |  |  | OC1CNC(CNCn2ccnc2)C1O (stereo not given) | pIC50 [7]: 3.21; pKi (Beta-glucosidase A [10]): 3.92; inhibition [13]: 24%; pIC50 (Beta-glucosidase A [15]): 3.54 |
| inactive | inactive | inactive |  |  |  | 68% | 23% | inactive |  | 38% |  | inactive | inactive | inactive | inactive |  |  | OC1CNC(CNCc2cccs2)C1O (stereo not given) |  |
| inactive | inactive | inactive |  |  |  |  | 33% | inactive |  | 43% |  | inactive | inactive | inactive | inactive |  | inactive | CC(=O)N(Cc1ccccc1)CC1NCC(O)C1O (stereo not given) |  |
| inactive |  | inactive |  |  |  |  |  | inactive |  |  | 24% | inactive |  | inactive | inactive | inactive |  | OC1CNC(CNCc2ccccc2)C1O (stereo not given) | inhibition [20]: inactive; inhibition [23]: 26% |
